In patent publication US11083725B2 (priority 2014, dated 2021):

System: NHBE cells
Experiment: Biolog metabolic array: substrate use by NHBE cells with or without CA09 infection
Assay type: cell-based, human
Conditions: for Substrate use, 590 nm absorbance normalized to zero hour, 1 hr: Biolog PMM2, 1 hr; for Substrate use, 590 nm absorbance normalized to zero hour, 5 hr: Biolog PMM2, 5 hr; for Substrate use, 590 nm absorbance normalized to zero hour, 7 hr: Biolog PMM2, 7 hr
[1] = Control (uninfected) NHBE cells
[2] = Virus (CA09-infected, MOI 1) NHBE cells
[3] = Virus: CA09-infected NHBE cells, MOI 1, Biolog PMM2
[4] = Virus (CA09, MOI 1) infected NHBE cells

Structure (SMILES): COC(=O)[C@@H](C)O [Methyl D-Lactate]
- 590 nm absorbance normalized to zero hour (substrate use), 1 hr [1]: 1.36
- 590 nm absorbance normalized to zero hour (substrate use), 2 hr [1]: 1.52
- 590 nm absorbance normalized to zero hour (substrate use), 3 hr [1]: 2.08
- 590 nm absorbance normalized to zero hour (substrate use), 4 hr [1]: 2.04
- 590 nm absorbance normalized to zero hour (substrate use), 6 hr [1]: 1.34
- 590 nm absorbance normalized to zero hour (substrate use), 8 hr [1]: 2.16
- 590 nm absorbance normalized to zero hour (substrate use), 9 hr [1]: 2.39
- 590 nm absorbance normalized to zero hour (substrate use), 10 hr [1]: 2.41
- 590 nm absorbance normalized to zero hour (substrate use), 11 hr [1]: 2.99
- Substrate use, 590 nm absorbance normalized to zero hour, 1 hr [1]: 1.36
- Substrate use, 590 nm absorbance normalized to zero hour, 5 hr [1]: 2.26
- Substrate use, 590 nm absorbance normalized to zero hour, 7 hr [1]: 2.14
- 590 nm absorbance normalized to zero hour (substrate use), 1 hr [2]: 2.10
- 590 nm absorbance normalized to zero hour (substrate use), 2 hr [2]: 2.49
- 590 nm absorbance normalized to zero hour (substrate use), 3 hr [2]: 2.89
- 590 nm absorbance normalized to zero hour (substrate use), 4 hr [2]: 2.64
- 590 nm absorbance normalized to zero hour (substrate use), 5 hr [2]: 2.75
- 590 nm absorbance normalized to zero hour (substrate use), 6 hr [2]: 2.94
- 590 nm absorbance normalized to zero hour (substrate use), 7 hr [2]: 3.10
- 590 nm absorbance normalized to zero hour (substrate use), 8 hr [2]: 3.20
- 590 nm absorbance normalized to zero hour (substrate use), 9 hr [2]: 3.46
- 590 nm absorbance normalized to zero hour (substrate use), 10 hr [2]: 3.46
- 590 nm absorbance normalized to zero hour (substrate use), 11 hr [2]: 3.61
- 590 nm absorbance normalized to zero hour (substrate use), 1 hr [3]: 2.10
- 590 nm absorbance normalized to zero hour (substrate use), 2 hr [3]: 2.49
- 590 nm absorbance normalized to zero hour (substrate use), 3 hr [3]: 2.89
- 590 nm absorbance normalized to zero hour (substrate use), 4 hr [3]: 2.64
- 590 nm absorbance normalized to zero hour (substrate use), 5 hr [3]: 2.75
- 590 nm absorbance normalized to zero hour (substrate use), 6 hr [3]: 2.94
- 590 nm absorbance normalized to zero hour (substrate use), 7 hr [3]: 3.10
- 590 nm absorbance normalized to zero hour (substrate use), 8 hr [3]: 3.20
- 590 nm absorbance normalized to zero hour (substrate use), 9 hr [3]: 3.46
- 590 nm absorbance normalized to zero hour (substrate use), 10 hr [3]: 3.46
- 590 nm absorbance normalized to zero hour (substrate use), 11 hr [3]: 3.61

Structure (SMILES): COC(=O)C(C)=O [Methyl Pyruvate]
- 590 nm absorbance normalized to zero hour (substrate use), 1 hr [1]: 1.32
- 590 nm absorbance normalized to zero hour (substrate use), 2 hr [1]: 1.57
- 590 nm absorbance normalized to zero hour (substrate use), 3 hr [1]: 1.25
- 590 nm absorbance normalized to zero hour (substrate use), 4 hr [1]: 1.36
- 590 nm absorbance normalized to zero hour (substrate use), 6 hr [1]: 0.77
- 590 nm absorbance normalized to zero hour (substrate use), 8 hr [1]: 1.65
- 590 nm absorbance normalized to zero hour (substrate use), 9 hr [1]: 1.74
- 590 nm absorbance normalized to zero hour (substrate use), 10 hr [1]: 1.79
- 590 nm absorbance normalized to zero hour (substrate use), 11 hr [1]: 1.76
- Substrate use, 590 nm absorbance normalized to zero hour, 1 hr [1]: 1.32
- Substrate use, 590 nm absorbance normalized to zero hour, 5 hr [1]: 1.59
- Substrate use, 590 nm absorbance normalized to zero hour, 7 hr [1]: 1.51
- 590 nm absorbance normalized to zero hour (substrate use), 1 hr [2]: 1.93
- 590 nm absorbance normalized to zero hour (substrate use), 2 hr [2]: 2.20
- 590 nm absorbance normalized to zero hour (substrate use), 3 hr [2]: 2.60
- 590 nm absorbance normalized to zero hour (substrate use), 4 hr [2]: 2.51
- 590 nm absorbance normalized to zero hour (substrate use), 5 hr [2]: 2.66
- 590 nm absorbance normalized to zero hour (substrate use), 6 hr [2]: 2.87
- 590 nm absorbance normalized to zero hour (substrate use), 7 hr [2]: 2.99
- 590 nm absorbance normalized to zero hour (substrate use), 8 hr [2]: 3.03
- 590 nm absorbance normalized to zero hour (substrate use), 9 hr [2]: 3.24
- 590 nm absorbance normalized to zero hour (substrate use), 10 hr [2]: 3.21
- 590 nm absorbance normalized to zero hour (substrate use), 11 hr [2]: 3.04
- 590 nm absorbance normalized to zero hour (substrate use), 1 hr [3]: 1.93
- 590 nm absorbance normalized to zero hour (substrate use), 2 hr [3]: 2.20
- 590 nm absorbance normalized to zero hour (substrate use), 3 hr [3]: 2.60
- 590 nm absorbance normalized to zero hour (substrate use), 4 hr [3]: 2.51
- 590 nm absorbance normalized to zero hour (substrate use), 5 hr [3]: 2.66
- 590 nm absorbance normalized to zero hour (substrate use), 6 hr [3]: 2.87
- 590 nm absorbance normalized to zero hour (substrate use), 7 hr [3]: 2.99
- 590 nm absorbance normalized to zero hour (substrate use), 8 hr [3]: 3.03
- 590 nm absorbance normalized to zero hour (substrate use), 9 hr [3]: 3.24
- 590 nm absorbance normalized to zero hour (substrate use), 10 hr [3]: 3.21
- 590 nm absorbance normalized to zero hour (substrate use), 11 hr [3]: 3.04

Structure (SMILES): COC(=O)CCC(=O)O [Mono Methyl Succinate]
- 590 nm absorbance normalized to zero hour (substrate use), 1 hr [1]: 1.07
- 590 nm absorbance normalized to zero hour (substrate use), 2 hr [1]: 1.14
- 590 nm absorbance normalized to zero hour (substrate use), 3 hr [1]: 1.10
- 590 nm absorbance normalized to zero hour (substrate use), 4 hr [1]: 1.10
- 590 nm absorbance normalized to zero hour (substrate use), 6 hr [1]: 0.53
- 590 nm absorbance normalized to zero hour (substrate use), 8 hr [1]: 1.09
- 590 nm absorbance normalized to zero hour (substrate use), 9 hr [1]: 1.11
- 590 nm absorbance normalized to zero hour (substrate use), 10 hr [1]: 1.11
- 590 nm absorbance normalized to zero hour (substrate use), 11 hr [1]: 1.11
- Substrate use, 590 nm absorbance normalized to zero hour, 1 hr [1]: 1.07
- Substrate use, 590 nm absorbance normalized to zero hour, 5 hr [1]: 1.13
- Substrate use, 590 nm absorbance normalized to zero hour, 7 hr [1]: 1.07
- 590 nm absorbance normalized to zero hour (substrate use), 1 hr [2]: 1.44
- 590 nm absorbance normalized to zero hour (substrate use), 2 hr [2]: 1.71
- 590 nm absorbance normalized to zero hour (substrate use), 3 hr [2]: 1.97
- 590 nm absorbance normalized to zero hour (substrate use), 4 hr [2]: 2.04
- 590 nm absorbance normalized to zero hour (substrate use), 5 hr [2]: 2.16
- 590 nm absorbance normalized to zero hour (substrate use), 6 hr [2]: 2.33
- 590 nm absorbance normalized to zero hour (substrate use), 7 hr [2]: 2.40
- 590 nm absorbance normalized to zero hour (substrate use), 8 hr [2]: 2.45
- 590 nm absorbance normalized to zero hour (substrate use), 9 hr [2]: 2.58
- 590 nm absorbance normalized to zero hour (substrate use), 10 hr [2]: 2.55
- 590 nm absorbance normalized to zero hour (substrate use), 11 hr [2]: 2.67
- 590 nm absorbance normalized to zero hour (substrate use), 1 hr [3]: 1.44
- 590 nm absorbance normalized to zero hour (substrate use), 2 hr [3]: 1.71
- 590 nm absorbance normalized to zero hour (substrate use), 3 hr [3]: 1.97
- 590 nm absorbance normalized to zero hour (substrate use), 4 hr [3]: 2.04
- 590 nm absorbance normalized to zero hour (substrate use), 5 hr [3]: 2.16
- 590 nm absorbance normalized to zero hour (substrate use), 6 hr [3]: 2.33
- 590 nm absorbance normalized to zero hour (substrate use), 7 hr [3]: 2.40
- 590 nm absorbance normalized to zero hour (substrate use), 8 hr [3]: 2.45
- 590 nm absorbance normalized to zero hour (substrate use), 9 hr [3]: 2.58
- 590 nm absorbance normalized to zero hour (substrate use), 10 hr [3]: 2.55
- 590 nm absorbance normalized to zero hour (substrate use), 11 hr [3]: 2.67

Structure (SMILES): CC(=O)N[C@H]1C(O)O[C@H](CO)[C@@H](O)[C@@H]1O (stereo partly drawn) [N-Acetyl-D-Glucosamine]
- 590 nm absorbance normalized to zero hour (substrate use), 1 hr [1]: 0.19
- 590 nm absorbance normalized to zero hour (substrate use), 2 hr [1]: 0.27
- 590 nm absorbance normalized to zero hour (substrate use), 3 hr [1]: 0.32
- 590 nm absorbance normalized to zero hour (substrate use), 4 hr [1]: 0.34
- 590 nm absorbance normalized to zero hour (substrate use), 6 hr [1]: 0.32
- 590 nm absorbance normalized to zero hour (substrate use), 8 hr [1]: 0.48
- 590 nm absorbance normalized to zero hour (substrate use), 9 hr [1]: 0.50
- 590 nm absorbance normalized to zero hour (substrate use), 10 hr [1]: 0.45
- 590 nm absorbance normalized to zero hour (substrate use), 11 hr [1]: 0.44
- Substrate use, 590 nm absorbance normalized to zero hour, 1 hr [1]: 0.19
- Substrate use, 590 nm absorbance normalized to zero hour, 5 hr [1]: 0.40
- Substrate use, 590 nm absorbance normalized to zero hour, 7 hr [1]: 0.46
- Substrate use, 590 nm absorbance normalized to zero hour, 1 hr [4]: 2.25
- Substrate use, 590 nm absorbance normalized to zero hour, 5 hr [4]: 4.99
- Substrate use, 590 nm absorbance normalized to zero hour, 7 hr [4]: 5.67
- 590 nm absorbance normalized to zero hour (substrate use), 1 hr [2]: 2.25
- 590 nm absorbance normalized to zero hour (substrate use), 2 hr [2]: 3.27
- 590 nm absorbance normalized to zero hour (substrate use), 3 hr [2]: 3.85
- 590 nm absorbance normalized to zero hour (substrate use), 4 hr [2]: 4.12
- 590 nm absorbance normalized to zero hour (substrate use), 6 hr [2]: 5.27
- 590 nm absorbance normalized to zero hour (substrate use), 8 hr [2]: 6.03
- 590 nm absorbance normalized to zero hour (substrate use), 9 hr [2]: 6.65
- 590 nm absorbance normalized to zero hour (substrate use), 10 hr [2]: 6.45
- 590 nm absorbance normalized to zero hour (substrate use), 11 hr [2]: 5.53
